Test results from article PMC13194723, “Structural basis for pH-responsive amino acid transport via SLC7A4” (Nature Communications, 2026).
Positions count from the first letter of the chain named.

Assays:
[1] = target: T1, human SLC7A4 triple mutant (Tri-M) (Homo sapiens, UniProt O43246, L336S/L394M/V332S); assay: competition of […] L-Leu uptake in HCT116 SLC7A5 KO cells; format: cell-based
T1 construct: C-terminal FLAG tag
T1 sequence (O43246 1-635 V332S/L336S/L394M): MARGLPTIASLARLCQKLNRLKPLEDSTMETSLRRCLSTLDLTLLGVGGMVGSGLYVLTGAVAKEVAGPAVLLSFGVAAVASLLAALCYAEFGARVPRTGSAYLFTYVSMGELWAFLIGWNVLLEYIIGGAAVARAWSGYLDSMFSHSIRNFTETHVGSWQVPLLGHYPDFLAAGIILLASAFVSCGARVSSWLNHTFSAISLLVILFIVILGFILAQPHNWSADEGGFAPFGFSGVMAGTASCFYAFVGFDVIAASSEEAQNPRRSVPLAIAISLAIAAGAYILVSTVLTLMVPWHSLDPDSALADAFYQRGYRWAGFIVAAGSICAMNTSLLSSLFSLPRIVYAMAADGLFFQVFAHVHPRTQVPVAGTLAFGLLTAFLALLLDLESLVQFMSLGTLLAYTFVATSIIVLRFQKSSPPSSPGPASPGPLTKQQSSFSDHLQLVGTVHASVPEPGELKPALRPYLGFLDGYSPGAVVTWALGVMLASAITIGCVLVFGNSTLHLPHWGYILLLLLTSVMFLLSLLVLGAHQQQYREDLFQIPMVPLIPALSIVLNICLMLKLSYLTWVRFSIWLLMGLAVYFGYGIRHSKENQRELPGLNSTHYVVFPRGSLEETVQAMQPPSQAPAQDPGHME

[2] = target: T2, human SLC7A4 (Homo sapiens, UniProt O43246); assay: competition of […] L-Leu uptake in HCT116 SLC7A5 KO cells; also recognised in nanoDSF; not transported; format: cell-based
T2 construct: C-terminal FLAG tag
T2 sequence (O43246 1-635): T1 sequence (O43246 1-635 V332S/L336S/L394M) with S332V, S336L, M394L

[3] = target: T2, human SLC7A4; assay: […] L-Leu uptake competition in HCT116 SLC7A5 KO cells overexpressing SLC7A4; also nanoDSF (~[…] °C) and proteoliposome uptake; format: cell-based
[4] = target: T1, human SLC7A4 triple mutant (Tri-M); assay: […] L-Leu uptake and competition in HCT116 SLC7A5 KO cells; format: cell-based
[5] = target: T3, Arabidopsis thaliana CAT4 (SLC7A4/CAT4) (Arabidopsis thaliana (Mouse-ear cress)., UniProt Q8W4K3); assay: BLI; Octet Red 384; who was immobilised is not stated; settings: both partners purified
T3 construct: Cationic amino acid transporter 4 (CAT4) of Arabidopsis thaliana, UniProt Q8W4K3; codon-optimised synthetic gene in pDDGFP-Leu2D; C-terminal TEV site (ENLYFQG/S), yeGFP and His12 removed by TEV protease, so part of the TEV site stays on the C-terminus; also called AtCAT4; Arabidopsis thaliana SLC7A4; source: S. cerevisiae BJ5460, purified in LMNG (Ni-NTA, TEV cleavage, HisTrap flow-through, SEC); …
T3 sequence (Q8W4K3 whole entry): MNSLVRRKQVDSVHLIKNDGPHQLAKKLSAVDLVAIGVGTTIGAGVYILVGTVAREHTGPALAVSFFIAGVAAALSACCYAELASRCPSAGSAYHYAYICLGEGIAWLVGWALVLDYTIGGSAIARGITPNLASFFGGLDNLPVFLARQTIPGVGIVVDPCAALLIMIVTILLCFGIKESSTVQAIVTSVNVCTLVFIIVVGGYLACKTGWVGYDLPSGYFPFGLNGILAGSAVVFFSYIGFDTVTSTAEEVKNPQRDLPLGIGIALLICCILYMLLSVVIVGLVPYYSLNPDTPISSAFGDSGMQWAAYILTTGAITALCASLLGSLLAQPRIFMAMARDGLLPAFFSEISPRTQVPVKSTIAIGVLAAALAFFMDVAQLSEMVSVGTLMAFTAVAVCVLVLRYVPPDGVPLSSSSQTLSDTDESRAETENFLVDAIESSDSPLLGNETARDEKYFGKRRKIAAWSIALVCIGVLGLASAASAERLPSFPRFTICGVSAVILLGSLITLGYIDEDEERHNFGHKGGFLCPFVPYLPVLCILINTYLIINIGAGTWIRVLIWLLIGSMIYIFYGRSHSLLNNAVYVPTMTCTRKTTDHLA

N=C(N)NCCC[C@H](N)C(=O)O [L-Arginine]
IC50 [1]: 48.6 ± 2.3 µM | IC50 [2]: 680 ± 19 µM

CC(C)C[C@H](N)C(=O)O [L-Leucine]
IC50 [3]: 24 ± 5 µM | IC50 [4]: 65 µM

B1: Sybody B5 (VHH)
VHH: QVQLVESGGGLVQAGGSLRLSCAASGFPVNMYWMHWYRQAPGKEREWVAAIQSYGQWTAYADSVKGRFTISRDNAKNTVYLQMNSLKPEDTAVYYCAVGVGGYYLGQGTQVTVS
notes: Synthetic nanobody selected from the loop sybody library against AtCAT4; also called SybB5; source: E. coli MC1061, periplasmic extraction, purified (Ni-NTA); not shown: Myc, C-terminal, kept; His6, C-terminal, kept
Kd [5]: 0.0573 ± 0.0105 µM
